Blank lines part the entries; values can stand above or below the compound they belong to.
Experiments:
Conditions in all cases: binder
[1] = biological target: MAPKAPK2 (Homo sapiens, UniProt P49137)
[2] = biological target: CaMK1d (Homo sapiens, UniProt Q8IU85)
[3] = biological target: MARK3 (Homo sapiens, UniProt P27448)
[4] = biological target: PAK4 (Homo sapiens, UniProt O96013)
[5] = biological target: T1, MARK4 (Homo sapiens, UniProt Q96L34)
T1 sequence (Q96L34 1-752): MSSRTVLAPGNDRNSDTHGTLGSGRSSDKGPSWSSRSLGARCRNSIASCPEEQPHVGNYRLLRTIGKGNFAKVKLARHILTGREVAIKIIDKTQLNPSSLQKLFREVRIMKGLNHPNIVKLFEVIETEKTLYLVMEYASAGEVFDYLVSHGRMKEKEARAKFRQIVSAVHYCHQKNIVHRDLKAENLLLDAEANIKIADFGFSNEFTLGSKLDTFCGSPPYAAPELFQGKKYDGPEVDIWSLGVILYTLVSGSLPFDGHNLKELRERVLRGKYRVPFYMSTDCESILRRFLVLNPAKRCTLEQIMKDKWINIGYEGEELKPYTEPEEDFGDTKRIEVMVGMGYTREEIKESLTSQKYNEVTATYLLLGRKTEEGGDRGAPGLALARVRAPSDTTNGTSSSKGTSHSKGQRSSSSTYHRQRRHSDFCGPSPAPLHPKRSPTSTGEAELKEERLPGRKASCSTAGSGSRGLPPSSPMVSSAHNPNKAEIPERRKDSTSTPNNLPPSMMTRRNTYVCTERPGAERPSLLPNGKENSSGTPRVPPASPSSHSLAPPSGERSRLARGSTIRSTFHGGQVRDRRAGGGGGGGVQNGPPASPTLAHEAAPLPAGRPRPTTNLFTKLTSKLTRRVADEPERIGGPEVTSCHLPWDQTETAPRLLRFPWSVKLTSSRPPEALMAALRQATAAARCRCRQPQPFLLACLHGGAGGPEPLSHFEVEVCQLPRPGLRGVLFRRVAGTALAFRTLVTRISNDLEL

[6] = biological target: T2, NQO2A (Homo sapiens, UniProt P16083)
T2 sequence (P16083 1-231): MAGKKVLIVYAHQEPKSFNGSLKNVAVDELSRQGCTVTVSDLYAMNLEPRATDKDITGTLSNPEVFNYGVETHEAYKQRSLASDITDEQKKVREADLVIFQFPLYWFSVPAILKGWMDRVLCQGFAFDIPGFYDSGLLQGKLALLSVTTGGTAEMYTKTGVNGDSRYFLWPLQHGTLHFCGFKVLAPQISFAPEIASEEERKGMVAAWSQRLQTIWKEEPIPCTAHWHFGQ

[7] = biological target: T3, CaMK4 (Homo sapiens, UniProt Q16566)
T3 sequence (Q16566 1-473): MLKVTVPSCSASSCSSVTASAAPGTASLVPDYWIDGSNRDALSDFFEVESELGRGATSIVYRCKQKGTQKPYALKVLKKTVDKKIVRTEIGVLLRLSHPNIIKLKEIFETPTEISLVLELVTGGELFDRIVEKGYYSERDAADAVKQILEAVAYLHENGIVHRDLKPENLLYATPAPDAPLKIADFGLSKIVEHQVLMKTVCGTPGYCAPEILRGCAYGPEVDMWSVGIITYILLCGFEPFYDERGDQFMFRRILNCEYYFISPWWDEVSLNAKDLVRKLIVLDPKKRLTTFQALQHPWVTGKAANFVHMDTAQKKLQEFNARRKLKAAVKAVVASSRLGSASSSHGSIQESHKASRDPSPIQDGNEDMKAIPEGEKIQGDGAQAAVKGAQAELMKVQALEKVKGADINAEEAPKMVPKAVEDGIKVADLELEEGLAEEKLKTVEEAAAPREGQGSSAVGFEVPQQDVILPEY

[8] = biological target: EphA4 (Homo sapiens, UniProt P54764)
Chain of EphA4 (P54764 whole entry): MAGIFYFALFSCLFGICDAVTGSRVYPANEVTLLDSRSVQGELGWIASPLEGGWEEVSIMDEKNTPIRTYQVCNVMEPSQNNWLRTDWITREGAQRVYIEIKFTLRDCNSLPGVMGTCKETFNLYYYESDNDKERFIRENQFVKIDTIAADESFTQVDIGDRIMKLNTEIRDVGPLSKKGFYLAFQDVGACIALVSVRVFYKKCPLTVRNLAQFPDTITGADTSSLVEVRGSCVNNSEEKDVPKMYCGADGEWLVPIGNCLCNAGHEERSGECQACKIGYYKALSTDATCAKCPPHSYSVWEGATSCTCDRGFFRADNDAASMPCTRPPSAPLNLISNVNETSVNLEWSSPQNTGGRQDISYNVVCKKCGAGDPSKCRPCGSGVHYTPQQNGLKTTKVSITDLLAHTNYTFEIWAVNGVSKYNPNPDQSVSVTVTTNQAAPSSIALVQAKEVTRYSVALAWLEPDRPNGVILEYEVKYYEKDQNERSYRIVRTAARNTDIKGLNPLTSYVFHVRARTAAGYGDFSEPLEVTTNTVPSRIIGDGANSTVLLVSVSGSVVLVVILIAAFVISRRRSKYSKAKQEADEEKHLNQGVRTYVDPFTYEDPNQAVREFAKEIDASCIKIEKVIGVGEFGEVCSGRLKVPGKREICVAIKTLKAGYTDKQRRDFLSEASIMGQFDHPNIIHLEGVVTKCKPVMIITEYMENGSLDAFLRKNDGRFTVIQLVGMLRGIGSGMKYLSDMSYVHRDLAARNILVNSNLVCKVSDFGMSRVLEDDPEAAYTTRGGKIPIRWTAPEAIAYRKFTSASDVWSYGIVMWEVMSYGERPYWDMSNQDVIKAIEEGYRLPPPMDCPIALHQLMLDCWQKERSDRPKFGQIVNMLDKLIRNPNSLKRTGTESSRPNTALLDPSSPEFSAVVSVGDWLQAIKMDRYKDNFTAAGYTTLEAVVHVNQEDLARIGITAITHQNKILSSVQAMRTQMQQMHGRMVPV

[9] = biological target: EphA2 (Homo sapiens, UniProt P29317)
Chain of EphA2 (P29317 whole entry): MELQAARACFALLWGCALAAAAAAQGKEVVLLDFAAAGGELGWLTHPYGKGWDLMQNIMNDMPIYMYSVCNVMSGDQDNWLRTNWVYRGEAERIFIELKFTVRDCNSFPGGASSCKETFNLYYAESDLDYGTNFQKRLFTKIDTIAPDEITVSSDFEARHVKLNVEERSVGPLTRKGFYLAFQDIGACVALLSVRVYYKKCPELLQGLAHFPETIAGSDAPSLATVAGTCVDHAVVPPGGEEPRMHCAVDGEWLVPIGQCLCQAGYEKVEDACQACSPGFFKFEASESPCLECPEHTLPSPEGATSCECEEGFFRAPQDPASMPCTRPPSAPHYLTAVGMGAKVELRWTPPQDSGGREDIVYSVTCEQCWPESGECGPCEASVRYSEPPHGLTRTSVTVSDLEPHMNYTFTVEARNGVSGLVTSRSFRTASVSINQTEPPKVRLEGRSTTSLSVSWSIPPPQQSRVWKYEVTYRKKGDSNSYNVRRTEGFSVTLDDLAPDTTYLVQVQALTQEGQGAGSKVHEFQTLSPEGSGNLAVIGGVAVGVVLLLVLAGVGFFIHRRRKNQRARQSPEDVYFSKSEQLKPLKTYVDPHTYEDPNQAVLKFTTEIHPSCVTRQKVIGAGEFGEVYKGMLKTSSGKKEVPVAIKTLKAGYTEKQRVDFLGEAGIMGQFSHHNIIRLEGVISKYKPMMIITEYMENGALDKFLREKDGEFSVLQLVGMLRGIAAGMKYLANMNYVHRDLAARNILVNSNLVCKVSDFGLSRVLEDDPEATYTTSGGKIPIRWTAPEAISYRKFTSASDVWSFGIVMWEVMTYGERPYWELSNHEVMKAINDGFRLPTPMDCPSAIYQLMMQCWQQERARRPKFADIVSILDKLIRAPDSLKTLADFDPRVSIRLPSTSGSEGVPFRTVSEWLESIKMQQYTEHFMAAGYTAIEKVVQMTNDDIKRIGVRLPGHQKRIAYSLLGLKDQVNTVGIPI

Chain of MARK3 (P27448 whole entry): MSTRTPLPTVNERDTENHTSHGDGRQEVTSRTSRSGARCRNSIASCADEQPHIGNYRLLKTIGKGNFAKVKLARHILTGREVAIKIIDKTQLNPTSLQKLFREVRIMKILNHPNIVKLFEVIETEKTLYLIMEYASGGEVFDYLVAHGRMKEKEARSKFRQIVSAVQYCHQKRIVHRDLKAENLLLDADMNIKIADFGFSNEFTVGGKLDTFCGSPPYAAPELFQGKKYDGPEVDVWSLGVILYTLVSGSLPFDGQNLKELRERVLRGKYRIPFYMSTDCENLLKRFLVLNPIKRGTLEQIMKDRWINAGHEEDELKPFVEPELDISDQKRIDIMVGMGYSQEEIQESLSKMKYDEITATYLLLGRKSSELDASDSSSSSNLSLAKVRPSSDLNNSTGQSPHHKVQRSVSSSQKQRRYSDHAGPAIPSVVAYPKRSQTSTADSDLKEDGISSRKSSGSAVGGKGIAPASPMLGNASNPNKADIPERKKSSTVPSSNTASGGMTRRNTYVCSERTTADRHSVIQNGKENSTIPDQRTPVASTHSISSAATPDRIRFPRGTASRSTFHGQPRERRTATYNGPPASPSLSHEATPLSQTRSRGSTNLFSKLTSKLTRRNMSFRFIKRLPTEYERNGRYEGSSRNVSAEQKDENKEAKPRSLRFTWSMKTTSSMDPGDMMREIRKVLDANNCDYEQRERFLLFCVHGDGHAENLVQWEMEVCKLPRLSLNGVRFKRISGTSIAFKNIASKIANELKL
Chain of CaMK1d (Q8IU85 whole entry): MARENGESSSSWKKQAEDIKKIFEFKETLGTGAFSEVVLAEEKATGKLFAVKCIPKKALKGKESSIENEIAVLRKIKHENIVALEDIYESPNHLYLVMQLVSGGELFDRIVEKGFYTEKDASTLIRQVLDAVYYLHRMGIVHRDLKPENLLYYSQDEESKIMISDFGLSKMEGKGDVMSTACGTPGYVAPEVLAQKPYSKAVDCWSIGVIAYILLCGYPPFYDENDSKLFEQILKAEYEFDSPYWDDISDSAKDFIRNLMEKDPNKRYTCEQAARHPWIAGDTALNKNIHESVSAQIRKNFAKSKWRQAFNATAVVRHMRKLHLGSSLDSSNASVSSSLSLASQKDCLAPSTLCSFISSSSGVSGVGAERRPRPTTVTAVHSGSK
Chain of MAPKAPK2 (P49137 whole entry): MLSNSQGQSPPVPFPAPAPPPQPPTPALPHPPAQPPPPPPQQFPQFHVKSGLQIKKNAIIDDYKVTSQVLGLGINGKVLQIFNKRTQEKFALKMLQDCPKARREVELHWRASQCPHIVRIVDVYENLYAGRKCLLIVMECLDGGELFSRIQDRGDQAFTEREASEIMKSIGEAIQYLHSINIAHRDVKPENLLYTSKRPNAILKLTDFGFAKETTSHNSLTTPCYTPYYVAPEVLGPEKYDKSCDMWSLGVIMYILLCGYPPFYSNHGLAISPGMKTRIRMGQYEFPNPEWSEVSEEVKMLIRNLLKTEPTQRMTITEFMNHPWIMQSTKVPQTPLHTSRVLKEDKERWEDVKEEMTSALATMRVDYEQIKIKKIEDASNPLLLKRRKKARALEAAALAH
Chain of PAK4 (O96013 whole entry): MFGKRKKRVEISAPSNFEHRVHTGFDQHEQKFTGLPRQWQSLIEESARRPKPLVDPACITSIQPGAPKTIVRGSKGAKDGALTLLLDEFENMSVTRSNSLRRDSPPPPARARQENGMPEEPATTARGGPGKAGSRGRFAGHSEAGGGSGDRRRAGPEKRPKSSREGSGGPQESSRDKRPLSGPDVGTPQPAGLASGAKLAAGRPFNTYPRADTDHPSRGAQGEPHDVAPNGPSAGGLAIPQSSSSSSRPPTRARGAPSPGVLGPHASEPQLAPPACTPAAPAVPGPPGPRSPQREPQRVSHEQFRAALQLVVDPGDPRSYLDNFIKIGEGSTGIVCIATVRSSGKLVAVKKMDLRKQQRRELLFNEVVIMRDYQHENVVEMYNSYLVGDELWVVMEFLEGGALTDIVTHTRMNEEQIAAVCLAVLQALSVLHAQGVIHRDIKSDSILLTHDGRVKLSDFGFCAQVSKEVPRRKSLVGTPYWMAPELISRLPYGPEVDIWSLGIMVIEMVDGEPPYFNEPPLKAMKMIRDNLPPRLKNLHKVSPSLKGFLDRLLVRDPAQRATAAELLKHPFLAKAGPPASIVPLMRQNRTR

Compound: Cc1cccc(-c2ccc(-c3cc4cnc(Nc5cc(C(F)(F)F)ccc5C)nc4n(CCCCN)c3=O)c(Cl)c2)n1 [compound 28, 8-(4-Aminobutyl)-6-(2-chloro-4-(6-methylpyridin-2-yl)phenyl)-2-((2-methyl-5-(trifluoromethyl)phenyl)amino)pyrido[2,3-d]pyrimidin-7(8H)-one]
ΔTm 28 [1]: -0.2 °C
ΔTm 28 [2]: 4.8 °C
ΔTm 28 [3]: 3.8 °C
ΔTm 28 [4]: 3.5 °C
ΔTm 28 [5]: 2.2 °C
ΔTm 28 [6]: -0.7 °C
ΔTm 28 [7]: 3.9 °C
ΔTm 28 [8]: 3.4 °C
ΔTm 28 [9]: 4.5 °C

Compound: Cc1cccc(-c2ccc(-c3cc4cnc(NCCCN5CCCC5=O)nc4n(CCCCN)c3=O)c(Cl)c2)n1 [compound 27, MR30]
ΔTm MR30 (27) [1]: -0.3 °C
ΔTm MR30 (27) [2]: 2.4 °C
ΔTm MR30 (27) [3]: 4.7 °C
ΔTm MR30 (27) [4]: 2.8 °C
ΔTm MR30 (27) [5]: 3.8 °C
ΔTm MR30 (27) [6]: 0.5 °C
ΔTm MR30 (27) [7]: 2.5 °C
ΔTm MR30 (27) [8]: 2.0 °C
ΔTm MR30 (27) [9]: 3.6 °C

Compound: Cc1cccc(-c2ccc(-c3cc4cnc(Nc5ccc(CCCO)cc5)nc4n(CCCCN)c3=O)c(Cl)c2)n1 [compound 30, 8-(4-Aminobutyl)-6-(2-chloro-4-(6-methylpyridin-2-yl)phenyl)-2-((4-(3-hydroxypropyl)phenyl)amino)pyrido[2,3-d]pyrimidin-7(8H)-one]
ΔTm 30 [1]: -0.3 °C
ΔTm 30 [2]: 6.8 °C
ΔTm 30 [3]: 11.6 °C
ΔTm 30 [4]: 9.0 °C
ΔTm 30 [5]: 9.5 °C
ΔTm 30 [6]: -0.2 °C
ΔTm 30 [7]: 5.5 °C
ΔTm 30 [8]: 3.5 °C
ΔTm 30 [9]: 7.7 °C

Compound: Cc1cccc(-c2ccc(-c3cc4cnc(NCCCN5CCNCC5)nc4n(CCCCN)c3=O)c(Cl)c2)n1 [compound 29, 8-(4-Aminobutyl)-6-(2-chloro-4-(6-methylpyridin-2-yl)phenyl)-2-((3-(piperazin-1-yl)propyl)amino)pyrido[2,3-d]pyrimidin-7(8H)-one]
ΔTm 29 [1]: -0.2 °C
ΔTm 29 [2]: 3.7 °C
ΔTm 29 [3]: 5.8 °C
ΔTm 29 [4]: 2.6 °C
ΔTm 29 [5]: 4.8 °C
ΔTm 29 [6]: 0.3 °C
ΔTm 29 [7]: 1.5 °C
ΔTm 29 [8]: 2.1 °C
ΔTm 29 [9]: 5.1 °C

Further lines, results first:

ΔTm 31 [1]: -0.1 °C
ΔTm 31 [2]: 5.6 °C
ΔTm 31 [3]: 10.9 °C
ΔTm 31 [4]: 8.5 °C
ΔTm 31 [5]: 10.4 °C
ΔTm 31 [6]: -0.3 °C
ΔTm 31 [7]: 5.0 °C
ΔTm 31 [8]: 4.4 °C
ΔTm 31 [9]: 8.1 °C
Compound: Cc1cccc(-c2ccc(-c3cc4cnc(Nc5ccc(O)cc5)nc4n(CCCCN)c3=O)c(Cl)c2)n1 [compound 31, 8-(4-Aminobutyl)-6-(2-chloro-4-(6-methylpyridin-2-yl)phenyl)-2-((4-hydroxyphenyl)amino) pyrido[2,3-d]pyrimidin-7(8H)-one]

ΔTm 32 [1]: -0.1 °C
ΔTm 32 [2]: 6.0 °C
ΔTm 32 [3]: 10.9 °C
ΔTm 32 [4]: 7.9 °C
ΔTm 32 [5]: 9.9 °C
ΔTm 32 [6]: -0.2 °C
ΔTm 32 [7]: 4.9 °C
ΔTm 32 [8]: 4.6 °C
ΔTm 32 [9]: 7.9 °C
Compound: Cc1cccc(-c2ccc(-c3cc4cnc(Nc5ccc(C)c(O)c5)nc4n(CCCCN)c3=O)c(Cl)c2)n1 [compound 32, 8-(4-Aminobutyl)-6-(2-chloro-4-(6-methylpyridin-2-yl)phenyl)-2-((3-hydroxy-4-methylphenyl)amino)pyrido[2,3-d]pyrimidin-7(8H)-one]

From publication doi:10.1101/2023.11.24.568596v1 (biorxiv, 2023)
